Assays:
Huh-7 cells = test: Whole genome bisulfite sequencing (WGBS), promoter 5mCpG demethylation; assay type: cell-based, human; details: 25 μM, 4 hours
Method: Huh-7 and HepG-2 cells were cultured in DMEM media supplemented with 10% heat-inactivated fetal bovine serum (FBS), high glucose (HG, 4.5 g/L) at 37° C. in a humidified atmosphere of 5% CO2.
Each sample, 2 was sent to EpigenDx, Inc. (Hopkinton, MA) for analysis of global methylation bisulfite sequencing. The same samples, 6 μg, were sent to Novogene Co., Ltd (Tianjin, China) for analysis of whole genome bisulfite sequencing (WGBS). Total RNA was isolated using the Promega SV total RNA isolation system (Madison, WI) with DNase treatment. Each sample, 2 was used for the first-strand cDNA synthesis as recommended by the manufacturer (Invitrogen, Carlsbad, CA). […] Relative messenger RNA (mRNA) expression was quantified with the comparative cycle threshold (Ct) method using the primer set shown in Table 1.1 and was expressed as 2^−ΔΔct.
Analysis of Whole Human Genome Bisulfite Sequencing (WGBS) Each sample, 5.2 μg of genomic DNA spiked with 26 ng lambda DNA, was fragmented by sonication to 200-300 bp with Covaris S220, followed by end repair and adenylation. […] These DNA fragments were treated twice with bisulfite using EZ DNA Methylation-Gold™ Kit (Zymo Research) before the resulting single-strand DNA fragments were PCR amplified using KAPA HiFi Hot Start Uracil and Ready Mix (2×). […]

[1] = Metabolite profiling of plasma and feces after oral dose (radio-HPLC, HPLC/MS); design: species or system rats; details: Sprague Dawley, rat, in vivo, 75 mg/kg
Method: Radiolabeled components in plasma and feces extracts were profiled and identified using radio-high performance liquid chromatography (HPLC) and high performance liquid chromatography/mass spectrometry (HPLC/MS) methods.
Plasma pools were prepared for Group 1 (75 mg/kg, [14C]-25HC3S) samples collected at 2, 4, and 6 hours post-dose. […] One metabolite M29 was identified as 25-hydroxycholesterol with 37% ROI and a concentration of 1233 ng-equiv./g.
Feces pools were prepared for Group 2 (75 mg/kg, [^14C]-25HC3S) samples collected from 0 to 24, 24 to 48, 48 to 72, 72 to 96, 96 to 120, 120 to 144, and 144 to 168 hours post-dose. A total of eleven metabolites were identified. None of the metabolites were present at ≥5% of dose. Metabolites present at 2-5% of dose were M1(4.5% of total dose and 1%-69% ROI), M3 (4.6% of total dose and 1%-44% ROI), M4 (2.0% of total dose and 0%-10% ROI), M8 (3.1% of total dose and 1%-46% ROI), M29 (1.9% of total dose and 0%-2% ROI), and M30 (3.3% of total dose and 0%-5% ROI).

[2] = Excretion mass balance, single intravenous dose; assay type: in vivo, male Sprague Dawley rats; details: iv 10 mg/kg; over 168 hours
Method: Nine male Sprague Dawley rats (Group 1) were designated for the pharmacokinetic phase, 3 male Sprague Dawley rats (Group 2) for the excretion mass balance phase, and 7 male Sprague Dawley rats (Group 3) and 9 male Long Evans rats (Group 4) for the tissue distribution phase. All animals received a single intravenous dose of [^14C]-25HC3S at 10 mg/kg and a target radioactivity of 225 μCi/kg. Blood samples were collected from all Group 1 animals at approximately 0.083, 0.25, 0.5, 1, 2, 4, 8, 12, 24, 48, and 72 hours post-dose. Urine and feces were collected from all Group 2 animals periodically through 168 hours post-dose. […] Following blood collection, animals were euthanized by CO2 inhalation and carcasses frozen in a dry ice/hexane bath for processing by quantitative whole body autoradiography. Whole blood, plasma, urine, feces, cage rinse, and cage wash were analyzed for total radioactivity by liquid scintillation counting.

**Q.** Which “hypomethylation levels across genomic functional regions versus vehicle” value (Huh-7 cells) does the source give for C[C@H](CCCC(C)(C)O)[C@H]1CC[C@H]2[C@@H]3CC=C4C[C@@H](OS(=O)(=O)O)CC[C@]4(C)[C@H]3CC[C@]12C [25HC3S, 25-hydroxycholesterol-3-sulfate] here?
**A.** The value was “significantly higher hypomethylation levels than vehicle”.

**Q.** And the ROI in feces [1]?
**A.** Its ROI in feces is 0-88%.

**Q.** And the amount in feces [1]?
**A.** The amount in feces was 71.1 % of total dose.

**Q.** What about the “dose recovered in urine, feces, and cage rinse” value [2] of the same molecule?
**A.** Its value is “approximately 100.2 % of the dose”.

**Q.** And the “recovered radioactivity in feces” value [2]?
**A.** The value was 83.0%.
